Measured values as given in US20210128536A1, “WEAKLY BASIC DRUG AND IONIC POLYMER PHARMACEUTICAL FORMULATIONS AND METHODS OF FORMATION AND ADMINISTRATION THEREOF” (DISPERSOL TECHNOLOGIES, LLC, priority 2019, published 2021).

Assay: Thermal stability by thermogravimetric analysis (TGA)
Assay type: physicochemical
Settings: at relevant processing temperatures (<250° C.)
Experimental: Prior to thermokinetic processing, thermal stability of BI 667 was assessed using thermogravimetric analysis (TGA). BI 667 was considered stable (<1% mass loss on TGA) at relevant processing temperatures (<250° C.). […] (data not shown). […] Thus, a max processing temperature (and therefore ejection set point temperature) of the mixture was set at 160° C. TGA was performed on a TGA/DSC 1 (Mettler Toledo, Schwerzenbach, Switzerland). The temperature ramp utilized in this study was performed from 25 to 300° C. at a rate of 5° C./min with a nitrogen purge of 50 mL/min. Data were analyzed using STARE System.

- mass loss on TGA: < 1%
Structure (SMILES): CS(=O)(=O)c1cc(C2(NC(=O)c3cncc4c3cnn4-c3ccc(F)cc3)CC2)ccn1 [BI 667]
